Article PMC7782499, “Progerinin, an optimized progerin-lamin A binding inhibitor, ameliorates premature senescence phenotypes of Hutchinson-Gilford progeria syndrome” (Communications Biology, 2021)

Experiment: Maximum tolerated dose study in Beagle dogs, escalated-dose oral administration
Assay type: in vivo
Details: both sexes, beagle, dog, in vivo; oral gavage, dose escalation
Description: The protocol and procedures involving the care and use of animals in this study was reviewed and approved by IACUC of QuBEST BIO prior to conduct (Approval no.: QBSIACUC-A18142). During the study, the care and use of animals will be conducted in accordance with all applicable guidelines of Animal Welfare Act. Non-naive one male and one female Beagle dogs (~16–24 months old, original supplier: ORIENTBIO Co., Ltd, Korea) were selected from the stock colony and assigned for the study. The route of administration was the oral (by gavage) route, which is the anticipated clinical route of exposure. Test article formulations were administered once via oral gavage. The day of 1st dosing was designated as Day 1. Each dose was administered via a syringe attached with 12-french feeding tube. A dose volume of 5 ml/kg was used and individual dose volumes were based on the most recent body weight. Each dose was followed by a distilled water of 5 ml. Each animal was observed twice daily (a.m. and p.m.) for mortality and moribundity; findings were recorded as they were observed. Cage side observations were made for each animal once daily; abnormal findings were recorded. […] Body weights were measured prior to each dosing. […] Prior to dosing and ~24 h post each dose, blood was collected as the same method and frequency with hematology analysis using no anticoagulant and then serum was separated by centrifugation and stored at freezer until analyze (AU 400, Olympus, Japan; […] 744 Na^+/K^+/[…] Analyzer, SIEMENS, Germany). In terminal procedures, all surviving animals were returned to the stock colony without necropsy. Toxicity studies were performed by QuBEST BIO Co., Ltd (Yongin, Korea).
The objective of this study was to determine the maximum tolerated dose (MTD) of SLC-D011 following dose escalation by oral gavage to Beagle dogs.
The study group was detailed in Text Table 1.
Text Table 1. Study Group
Dose Level Dose Conc. No. of Animals†
Group Treatment (mg/kg) (mg/mL)
†: Animals were re-used for each dose with at least 4-day wash-out period.
The following parameters were evaluated in this study: mortality, clinical signs, body weights and clinical pathology parameters (hematology and serum biochemistry).
Mortality and Clinical Observations
All animals survived until end of the study. Test article-related clinical observations were limited to oily soft stool in the 100 mg/kg/day group animals and vomitus (frothy) and soft sto ol in the 400 […]
Clinical Pathology Parameters (Hematology and Serum Chemistry) […]
the 100 and 400 mg/kg group animals on approximately 24 hours post each dose, compared to pre […]
Based on the results of this study, the maximum tolerated dose (MTD) of SLC-D011 was considered to […]
Test article formulations were administered once via oral gavage. The day of 1st dosing was designated […]
Each dose was administered via a syringe attached with 12-french feeding tube. A dose volume of 5 mL/kg was used and individual dose volumes were based on the most recent body weight. Each dose was followed by a distilled water of 5 mL. […]
Each animal was observed twice daily (a.m. and p.m.) for mortality and moribundity; findings were recorded as they were observed. Cage side observations were made for each animal once daily; abnormal findings were recorded. Detailed observations were made for each animal once prior to treatment; abnormal findings (ranked/graded, if appropriate) or an indication the animal appears […]
Body weights were measured prior to each dosing. […]
Prior to each dosing and approximately 24 hours post each dose, blood samples for hematology examination were collected from the via cephalic vein into tubes with K2EDTA anticoagulant and […]
Parameters Unit Measurement Method
ⓐ RBC (Red blood cell count) 106/μL Electric Impedance […]
ⓒ HGB (Hemoglobin conc.) g/dL Cyanmethemoglobin […]

## CC1(C)Oc2cc3oc(=O)ccc3cc2C[C@@H]1OC/C=C/c1ccccc1 [SLC-D011]
  MTD: > 400 mg/kg
